Reference: US20250145632A1, “Pyrimidine Heterocyclic Compound, Preparation Method Thereof and use Thereof in Medicine” (INSILICO MEDICINE IP LIMITED, priority 2021, published 2025)

Columns and labels:
[1] = In-vivo pharmacokinetic experiment in male beagles; design: species or system dog; details: beagle
Description: Experimental method and conditions: male beagles with weight of 8-11 kg were purchased from Jiangsu Marshall Biotechnology Co., Ltd. The to-be-tested compound was administered to 3 dogs at 0.2 mg/kg or 1.0 mg/kg (solvent: 2% DMSO+10% Kolliphor HS 15+88% (6.818% of hydroxypropyl-beta-cyclodextrin aqueous solution), 0.2 mg/mL or 1.0 mg/mL) by intravenous injection, and administered to 3 dogs at 2 mg/kg (solvent: 5% DMSO+95% (10% hydroxypropyl-beta-cyclodextrin salt aqueous solution, 0.4 mg/mL) by oral intragastric administration. Head vein blood sampling was carried out 5 min, 15 min, 30 min, 1 h, 2 h, 4 h, 8 h and 24 h after the administration, and 500 μL of each sample was collected. After collection, the samples were placed on ice, and plasma was centrifugally separated within 15 min for testing. The concentration of the medicine in the plasma was detected by liquid chromatography-tandem mass spectrometry (LC/MS/MS), and pharmacokinetic parameters were calculated with Phoenix WinNonlin software when the concentration was measured.

[2] = tested on: HCC70 human breast ductal cancer cells; assay: HCC70 tumor cell proliferation inhibition (CellTiter-Glo); format: cell-based; details: 3 d culture
Description: HCC70 was purchased from ATCC; article No.: CRL-2315; RPMI1640 was purchased from Gibco; article No.: 11875-093; Pancreatin (including EDTA) was purchased from Gibco; article No.: 25200-072; FBS was purchased from Gibco; article No.: 10099-141C; CellTiter-Glo was purchased from Promega; article No.: G7573; DMSO was purchased from VWR AMRESCO; article No.: 0231-500ML; Staurosporine was purchased from Selleck; article No.: S1421; a cell counter was purchased from CHEMOMETEC; model: NC-200; and a microplate reader was purchased from PerkinElmer; Model: Envison.
(§1) HCC70 was human breast ductal cancer cells cultured in an RPMI-1640 culture medium containing 10% FBS. Cells in logarithmic phase were taken, and the cells were subjected to digesting, collecting and counting with pancreatin-EDTA, 2000 HCC70 cells/well were inoculated in a 384-well cell plate, and were cultured in 5% CO2 overnight. A 1000× compound stock solution with 3.16 times of gradient concentration was prepared with DMSO, and was diluted 100 times to 10× compound stock solution with a culture medium, and 10× compound stock solution was added into each cell culture well on the next day after cell inoculation, wherein the final concentration was 1×, and the DMSO content was 0.1%. The cell group was treated with DMSO as an experimental control (control), and the cell group was treated with 5 μM of Staurosporine as a blank control (blank).

[3] = tested on: OVCAR-3 human ovarian adenocarcinoma cells; assay: OVCAR-3 tumor cell proliferation inhibition (CellTiter-Glo); format: cell-based; details: 3 d culture
Description: OVCAR-3 was purchased from ATCC; article No.: HTB-161; RPMI1640 was purchased from Gibco; article No.: 11875-093; Pancreatin (including EDTA) was purchased from Gibco; article No.: 25200-072; FBS was purchased from Gibco; Article No.: 10091-148; CellTiter-Glo was purchased from Promega; article No.: G7573; Bovine insulin was purchased from absin; article No.: abs9169; DMSO was purchased from VWR AMRESCO; article No.: 0231-500ML; Staurosporine was purchased from Selleck; article No.: S1421; a cell counter was purchased from CHEMOMETEC; model: NC-200; and a microplate reader was purchased from PerkinElmer; Model: Envison.
as §1, with “OVCAR-3” for “HCC70”, “ovarian adenocarcinoma” for “breast ductal cancer”, “20% FBS and 0.01 mg/mL of Bovine insulin.” for “10% FBS.”

[4] = male, dog, plasma, intravenous injection 1.0 mg/kg
[5] = male, dog, plasma, oral administration 2 mg/kg

Row | Compound | IC50 [2] | IC50 [3] | further results
1 | CC1(C)CC[C@H](Nc2ncc(C(F)(F)F)c(-c3c[nH]c4c(P(C)(C)=O)c(C#N)ccc34)n2)CN1 [Compound 101, reference compound] | – | – | CL ([1]; intravenous injection 1.0 mg/kg): 14.5 mL/min/kg; Cmax ([1]; oral administration 2 mg/kg): 123 ng/mL; F(%) ([1]; oral administration 2 mg/kg): 65.8%; AUC(0-inf) [1, 4]: 1230 ng·h/mL; half-life [1, 4]: 6.88 h; Vd ([1]; male, dog, plasma, intravenous injection 1.0 mg/kg, read-out: Vss): 7.57 L/kg; AUC(0-inf) [1, 5]: 1590 ng·h/mL; half-life [1, 5]: 6.61 h
2 | CN1CC(F)(F)CCNC2CC[C@@H](C2)Nc2ncc(C(F)(F)F)c(n2)-c2c[nH]c3c(P(C)(C)=O)c(ccc23)C1=O [Compound Z66, (41 S,4^3S)-1^7-(dimethylphosphoryl)-8,8-difluoro-10-methyl-2^5-(trifluoromethyl)-1^1H-3,5,10-triaza-1(3,6)-indola-2(4,2)-pyrimidina-4(1,3)-cyclopentanacycloundecaphan-11-one] | 10.5 nM | 21.2 nM | –
3 | COc1cc2c(cn1)-c1ccc3c(c[nH]c3c1)-c1nc(ncc1C(F)(F)F)N[C@H]1CC[C@@H](C1)NCCCC2 [Compound Z73] | – | – | IC50 ([2]; Homo sapiens, HCC70, 72 h): 233 nM; IC50 ([3]; Homo sapiens, OVCAR-3, 72 h): 1050 nM
4 | O=c1cc2c(c[nH]1)-c1ccc3c(c[nH]c3c1)-c1nc(ncc1C(F)(F)F)N[C@H]1CC[C@@H](C1)NCCCC2 [Compound Z74] | – | – | IC50 ([2]; Homo sapiens, HCC70, 72 h): 1250 nM; IC50 ([3]; Homo sapiens, OVCAR-3, 72 h): 3460 nM
5 | CN1CC(F)CCNC2CCC(C2)Nc2ncc(C(F)(F)F)c(n2)-c2c[nH]c3c(P(C)(C)=O)c(ccc23)C1=O [Compound Z77, (4^1S,4^3S,8S)-17-(dimethylphosphoryl)-8-fluoro-10-methyl-2^5-(trifluoromethyl)-1′H-3,5,10-triaza-1(3,6)-indola-2(4,2)-pyrimidina-4(1,3)-cyclopentanacycloundecaphan-11-one] | 9.87 nM | 11.8 nM | –
6 | CN1C[C@H](F)CCN(C)[C@H]2CC[C@@H](C2)Nc2ncc(C(F)(F)F)c(n2)-c2c[nH]c3c(P(C)(C)=O)c(ccc23)C1=O [Compound Z78, (4^1S,4^3S,8R)-1^7-(dimethylphosphoryl)-8-fluoro-5,10-dimethyl-2^5-(trifluoromethyl)-1^1H-3,5,10-triaza-1(3,6)-indola-2(4,2)-pyrimidina-4(1,3)-cyclopentanacycloundecaphan-11-one] | 44 nM | 62.6 nM | –
7 | CN1CCCCN(C)[C@H]2CC[C@@H](C2)Nc2ncc(C(F)(F)F)c(n2)-c2c[nH]c3c(C#N)c(ccc23)C1=O [Compound Z84, (4^1S,4^3S)-5,10-dimethyl-11-oxo-2^5-(trifluoromethyl)-1^1H-3,5,10-triaza-1(3,6)-indola-2(4,2)-pyrimidina-4(1,3)-cyclopentanacycloundecaphane-1^7-carbonitrile] | 263 nM | 198 nM | –
8 | CN1CCC(F)(F)CN(C)C2CC[C@@H](C2)Nc2ncc(C(F)(F)F)c(n2)-c2c[nH]c3c(P(C)(C)=O)c(ccc23)C1=O [Compound Z85, (4^1S,4^3S)-1^7-(dimethylphosphoryl)-7,7-difluoro-5,10-dimethyl-2^5-(trifluoromethyl)-1^1H-3,5,10-triaza-1(3,6)-indola-2(4,2)-pyrimidina-4(1,3)-cyclopentanacycloundecaphan-11-one] | 517 nM | 1800 nM | –
9 | CN1CCC(F)(F)CN(C)C2CC[C@@H](C2)Nc2ncc(C(F)(F)F)c(n2)-c2c[nH]c3c(P(C)(C)=O)c(ccc23)C1=O [Compound Z86, (4^1S,4^3S)-1^7-(dimethylphosphoryl)-7,7-difluoro-5,10-dimethyl-2^5-(trifluoromethyl)-1^1H-3,5,10-triaza-1(3,6)-indola-2(4,2)-pyrimidina-4(1,3)-cyclopentanacycloundecaphan-11-one] | > 10000 nM | > 10000 nM | –
10 | CN1CCC(F)CN(C)C2CC[C@@H](C2)Nc2ncc(C(F)(F)F)c(n2)-c2c[nH]c3c(P(C)(C)=O)c(ccc23)C1=O (stereo partly drawn) [Compound Z89, (41S)-1^7-(dimethylphosphoryl)-7-fluoro-5,10-dimethyl-2^5-(trifluoromethyl)-1^1H-3,5,10-triaza-1(3,6)-indola-2(4,2)-pyrimidina-4(1,3)-cyclopentanacycloundecaphan-11-one] | > 10000 nM | > 10000 nM | –
11 | CN1CCC(F)CN(C)C2CC[C@@H](C2)Nc2ncc(C(F)(F)F)c(n2)-c2c[nH]c3c(P(C)(C)=O)c(ccc23)C1=O (stereo partly shown) [Compound Z90, (4^1S)-1^7-(dimethylphosphoryl)-7-fluoro-5,10-dimethyl-2^5-(trifluoromethyl)-1^1H-3,5,10-triaza-1(3,6)-indola-2(4,2)-pyrimidina-4(1,3)-cyclopentanacycloundecaphan-11-one] | > 10000 nM | > 10000 nM | –
12 | CN1CCOCCN(C)[C@H]2CC[C@@H](C2)Nc2ncc(C(F)(F)F)c(n2)-c2ccc3c(c[nH]c3n2)C1=O [Compound Z91, (4^1S,4^3S)-5,11-dimethyl-2^5-(trifluoromethyl)-1^1H-8-oxa-3,5,11-triaza-1(3,6)-pyrrolo[2,3-b]pyridina-2(4,2)-pyrimidina-4(1,3)-cyclopentanacyclododecaphan-12-one] | 438 nM | 811 nM | –
13 | CN1CCCCN(C)[C@H]2CC[C@@H](C2)Nc2ncc(C(F)(F)F)c(n2)-c2c[nH]c3nc(ccc23)C1=O [Compound Z92, (4^1S,4^3S)-5,10-dimethyl-2^5-(trifluoromethyl)-1^1H-3,5,10-triaza-1(3,6)-pyrrolo[2,3-b]pyridina-2(4,2)-pyrimidina-4(1,3)-cyclopentanacycloundecaphan-11-one] | 107 nM | 343 nM | –
14 | CN1CC(F)(F)CCN(C)C2CCC(C2)Nc2ncc(C(F)(F)F)c(n2)-c2ccc3c(c[nH]c3n2)C1=O (stereo not shown) [Compound Z93, (4^1S,4^3S)-8,8-difluoro-5,10-dimethyl-2^5-(trifluoromethyl)-1^1H-3,5,10-triaza-1(3,6)-pyrrolo[2,3-b]pyridine-2(4,2)-pyrimidina-4(1,3)-cyclopentanacycloundecaphan-11-one] | 5210 nM | > 10000 nM | –
